Test results taken from US20250230138A1, “COMPOUNDS HAVING A T-STRUCTURE FORMED BY AT LEAST FOUR CYCLES FOR USE IN THE TREATMENT OF CANCER AND OTHER INDICATIONS” (TheRas, Inc., priority 2022, published 2025).
Read-outs that look alike come from different tables or passages of the source.

Legend:
[1] = target: Cys242 in human PIK3CA (157-299) (Homo sapiens (Human), UniProt P42336); experiment: Covalent modification assay using MALDI-TOF MS; assay type: biochemical; details: 4 h reaction time point
Outline: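 PIK3CA (157-299), 3.33 or 1 μM in 20 mM HEPES, 150 mM NaCl, 2 mM MgCl2, pH 7.3, was incubated with compound at room temperature in the dark for 15 min, 30 min, 2 h or 4 h. Linear MALDI-TOF read-out; % modification = adduct peak height over summed heights of all protein species.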

pAKT in BT474 cells = experiment: Cell-based pAKT HTRF assay in BT474 cells; details: BT474 cells, 4 hr incubation, Compounds 10-999, read-out: pAKT inhibition IC50 in BT474 cells
Outline: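 Cells are seeded on day 1 and dosed on day 2 with a 9-point curve (3 μM top, 3-fold). After 4 hr they are lysed and the lysate is mixed with d2- and Eu Cryptate-labelled antibodies. HTRF is read after 4–24 h at room temperature.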

[2] = 3.33 μM protein target, 1:7.5 protein to compound ratio (compounds 1-852)
[3] = 1 μM protein target, 1:5 protein to compound ratio (compounds 853-1279)

Chain of Cys242 in human PIK3CA (157-299) (P42336 157-299): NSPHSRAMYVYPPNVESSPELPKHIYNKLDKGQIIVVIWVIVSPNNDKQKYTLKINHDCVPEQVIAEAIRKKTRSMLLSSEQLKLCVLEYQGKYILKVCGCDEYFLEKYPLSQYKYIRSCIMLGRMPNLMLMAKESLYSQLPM

| SMILES | IC50 (pAKT in BT474 cells) | IC50 (pAKT in BT474 cells; Homo sapiens, BT-474) | % of modification [1, 2] | % of modification [1, 3] |
| --- | --- | --- | --- | --- |
| C=CC(=O)N1CCn2nc(-c3nc(-c4ccc5c(c4)C(=O)NC5)c4ccsc4c3-c3c(F)cc(F)cc3OCCO)cc2[C@H]1C [Compound 852, 6-((S)-6-((R)-5-acryloyl-4-methyl-4,5,6,7-tetrahydropyrazolo[1,5-a]pyrazin-2-yl)-7-(2,4-difluoro-6-(2-hydroxyethoxy)phenyl)thieno[3,2-c]pyridin-4-yl)isoindolin-1-one] |  | < 100 nM | A (percent of modification of PIK3CA protein ≥75%) |  |
| C=C(F)C(=O)N1Cc2cc(-c3nc(-c4ccc5c(cnn5C)c4)c4ccsc4c3-c3c(F)cc(F)cc3OCCOC)nn2CC1C (stereo not drawn) [Compound 873] | 100 to 1000 nM |  |  | D (percent of modification <25%) |
| C=CC(=O)N1CCn2nc(-c3nc(-c4ccc5c(c4)CCNC5=O)c4ccsc4c3-c3c(F)cc(F)cc3OCCO)cc2[C@H]1C [Compound 876, 6-((S)-6-((R)-5-acryloyl-4-methyl-4,5,6,7-tetrahydropyrazolo[1,5-a]pyrazin-2-yl)-7-(2,4-difluoro-6-(2-hydroxyethoxy)phenyl)thieno[3,2-c]pyridin-4-yl)-3,4-dihydroisoquinolin-1(2H)-one] |  | < 100 nM |  | A (percent of modification of PIK3CA protein ≥75%) |
| C=CC(=O)N1CCn2nc(-c3nc(-c4ccc5c(c4)C(=O)NC5)c4ccsc4c3-c3c(F)cc(F)cc3OCC(C)O)cc2C1C (stereo not drawn) [Compound 879] | < 100 nM |  |  | A (percent of modification of PIK3CA protein ≥75%) |
| C=CC(=O)N1Cc2cc(-c3nc(-c4ccc(=O)n(CCN(C)C)c4)c4ccsc4c3-c3c(F)cc(F)cc3OCCOC)nn2C[C@H]1C [Compound 880] | < 100 nM |  |  | A (percent of modification of PIK3CA protein ≥75%) |
| C=CC(=O)N1Cc2cc(-c3nc(-c4ccc5nn(C)cc5c4)c4ccsc4c3-c3c(F)cc(F)cc3OCC(C)(C)O)nn2[C@@H](C)C1 [Compound 881] | < 100 nM |  |  | A (percent of modification of PIK3CA protein ≥75%) |
| C=CC(=O)N1Cc2cc(-c3nc(-c4cnnc(C)c4)c4ccsc4c3-c3c(F)cc(F)cc3OCC(C)(C)O)nn2[C@@H](C)C1 [Compound 882] | < 100 nM |  |  | A (percent of modification of PIK3CA protein ≥75%) |
| C=CC(=O)N1Cc2cc(-c3nc(-c4cn(C)cn4)c4ccsc4c3-c3c(F)cc(F)cc3OCC(C)(C)O)nn2[C@@H](C)C1 [Compound 883] | < 100 nM |  |  | A (percent of modification of PIK3CA protein ≥75%) |
| C=CC(=O)N1Cc2cc(-c3nc(-c4cnnc(OCCN(C)C)c4)c4ccsc4c3-c3c(F)cc(F)cc3OCCOC)nn2C[C@H]1C [Compound 884] | < 100 nM |  |  | A (percent of modification of PIK3CA protein ≥75%) |
| C=CC(=O)N1Cc2cc(-c3nc(-c4cnc5c(cnn5C)c4)c4ccsc4c3-c3c(F)cc(F)cc3OCCO)nn2C[C@H]1C [Compound 885] | < 100 nM |  |  | A (percent of modification of PIK3CA protein ≥75%) |
| C=CC(=O)N1CCn2nc(-c3nc(-c4cnc5c(cnn5C)c4)c4ccsc4c3-c3c(F)cc(F)cc3OCCOC)cc2[C@@H]1C [Compound 888] | < 100 nM |  |  | A (percent of modification of PIK3CA protein ≥75%) |
| C=CC(=O)N1CCn2nc(-c3nc(-c4ccc5c(=O)n(C)ncc5c4)c4ccsc4c3-c3c(F)cc(F)cc3OCCO)cc2[C@H]1C [Compound 889] | < 100 nM |  |  | A (percent of modification of PIK3CA protein ≥75%) |
| C=CC(=O)N1CCn2nc(-c3nc(-c4ccc5c(c4)CNC(=O)C5)c4ccsc4c3-c3c(F)cc(F)cc3OCCO)cc2[C@H]1C [Compound 890] | < 100 nM |  |  | A (percent of modification of PIK3CA protein ≥75%) |
| C=CC(=O)N1CCn2nc(-c3nc(-c4ccc5c(c4)CNC5=O)c4ccsc4c3-c3c(F)cc(F)cc3OCCO)cc2C1C (stereo not drawn) [Compound 891] | < 100 nM |  |  | A (percent of modification of PIK3CA protein ≥75%) |
| C=CC(=O)N1CCn2nc(-c3nc(-c4ccc5nncn5c4)c4ccsc4c3-c3c(F)cc(F)cc3OCCO)cc2[C@H]1C [Compound 892] | < 100 nM |  |  | A (percent of modification of PIK3CA protein ≥75%) |
| C=CC(=O)N1CCn2nc(-c3nc(-c4cnc5c(cnn5C)c4)c4ccsc4c3-c3c(F)cc(F)cc3OC[C@@H](C)O)cc2[C@H]1C [Compound 893] | < 100 nM |  |  | A (percent of modification of PIK3CA protein ≥75%) |
| C=CC(=O)N1CCn2nc(-c3nc(-c4ccc5c(c4)CCNC5=O)c4ccsc4c3-c3c(F)cc(F)cc3OC[C@@H](C)O)cc2[C@H]1C [Compound 894] | < 100 nM |  |  | A (percent of modification of PIK3CA protein ≥75%) |
| C=CC(=O)N1CCn2nc(-c3nc(-c4ccc5cnncc5c4)c4ccsc4c3-c3c(F)cc(F)cc3OC[C@@H](C)O)cc2[C@H]1C [Compound 895] | < 100 nM |  |  | A (percent of modification of PIK3CA protein ≥75%) |
| C=CC(=O)N1CCn2nc(-c3nc(-c4ccc5c(c4)CNC(=O)C5)c4ccsc4c3-c3c(F)cc(F)cc3OC[C@@H](C)O)cc2[C@H]1C [Compound 896] | < 100 nM |  |  | A (percent of modification of PIK3CA protein ≥75%) |
| C=CC(=O)N1CCn2nc(-c3nc(-c4ccc5nncn5c4)c4ccsc4c3-c3c(F)cc(F)cc3OC[C@@H](C)O)cc2[C@H]1C [Compound 897] | < 100 nM |  |  | A (percent of modification of PIK3CA protein ≥75%) |
| C=CC(=O)N1CCn2nc(-c3nc(-c4ccc5cnn(C)c(=O)c5c4)c4ccsc4c3-c3c(F)cc(F)cc3OCCOC)cc2[C@@H]1C [Compound 898] | < 100 nM |  |  | A (percent of modification of PIK3CA protein ≥75%) |

Continued, in another order:

| IC50 (pAKT in BT474 cells) | IC50 (pAKT in BT474 cells; Homo sapiens, BT-474) | SMILES | % of modification [1, 2] | % of modification [1, 3] |
| --- | --- | --- | --- | --- |
| < 100 nM |  | C=CC(=O)N1Cc2cc(-c3nc(-c4ccc5nn(C)cc5c4)c4ccsc4c3-c3c(F)cc(F)cc3OC)nn2[C@@H](C)C1 [Compound 847] | A (percent of modification of PIK3CA protein ≥75%) |  |
| < 100 nM |  | C=CC(=O)N1Cc2cc(-c3nc(-c4ccc5c(cnn5C)c4)c4ccsc4c3-c3c(F)cc(F)cc3OCC(C)(C)O)nn2[C@@H](C)C1 [Compound 848] | A (percent of modification of PIK3CA protein ≥75%) |  |
| < 100 nM |  | C=CC(=O)N1Cc2cc(-c3nc(-c4ccc5c(=O)n(C)ncc5c4)c4ccsc4c3-c3c(F)cc(F)cc3OCCOC)nn2C[C@H]1C [Compound 849] | A (percent of modification of PIK3CA protein ≥75%) |  |
| < 100 nM |  | C=CC(=O)N1Cc2cc(-c3nc(-c4cc(C)ncn4)c4ccsc4c3-c3c(F)cc(F)cc3OCCOC)nn2CC1C (stereo not drawn) [Compound 850] | A (percent of modification of PIK3CA protein ≥75%) |  |
| < 100 nM |  | C=CC(=O)N1Cc2cc(-c3nc(-c4ncn(C)n4)c4ccsc4c3-c3c(F)cc(F)cc3OCCOC)nn2CC1C (stereo not drawn) [Compound 851] | A (percent of modification of PIK3CA protein ≥75%) |  |
| < 100 nM |  | C=CC(=O)N1Cc2cc(-c3nc(-c4ccc5cnncc5c4)c4ccsc4c3-c3c(F)cc(F)cc3OCCO)nn2CC1C (stereo not drawn) [Compound 853] |  | A (percent of modification of PIK3CA protein ≥75%) |
| < 100 nM |  | C=CC(=O)N1Cc2cc(-c3nc(-c4ccc5c(cnn5C)c4)c4ccsc4c3-c3c(F)cc(F)cc3OC)nn2C(C)C1 (stereo not drawn) [Compound 854] |  | A (percent of modification of PIK3CA protein ≥75%) |
| < 100 nM |  | C=CC(=O)N1Cc2cc(-c3nc(-c4ccc(N(C)C)nc4)c4ccsc4c3-c3c(F)cc(F)cc3OCCOC)nn2CC1C (stereo not drawn) [Compound 855] |  | A (percent of modification of PIK3CA protein ≥75%) |
| < 100 nM |  | C=CC(=O)N1Cc2cc(-c3nc(-c4ccc5ncc(=O)n(C)c5c4)c4ccsc4c3-c3c(F)cc(F)cc3OCCOC)nn2CC1C (stereo not drawn) [Compound 856] |  | A (percent of modification of PIK3CA protein ≥75%) |
| < 100 nM |  | C=CC(=O)N1Cc2cc(-c3nc(N4CCC(N(C)C)CC4)c4ccsc4c3-c3c(F)cc(F)cc3OCCOC)nn2CC1C (stereo not drawn) [Compound 857] |  | A (percent of modification of PIK3CA protein ≥75%) |
| < 100 nM |  | C=CC(=O)N1CCn2nc(-c3nc(-c4ccc5c(c4)C(=O)N(C)C5)c4ccsc4c3-c3c(F)cc(F)cc3OCCO)cc2C1C (stereo not drawn) [Compound 867] |  | A (percent of modification of PIK3CA protein ≥75%) |
| < 100 nM |  | C=CC(=O)N1CCn2nc(-c3nc(-c4ccc(=O)n(C)c4)c4ccsc4c3-c3c(F)cc(F)cc3OCCO)cc2C1C (stereo not drawn) [Compound 872] |  | A (percent of modification of PIK3CA protein ≥75%) |
| < 100 nM |  | C=CC(=O)N1CCn2nc(-c3nc(-c4ccc5c(c4)CN(C)C5=O)c4ccsc4c3-c3c(F)cc(F)cc3OCCO)cc2C1C (stereo not drawn) [Compound 875] |  | A (percent of modification of PIK3CA protein ≥75%) |
| < 100 nM |  | C=CC(=O)N1CCn2nc(-c3nc(-c4cnc5c(cnn5C)c4)c4ccsc4c3-c3c(F)cc(F)cc3OCCO)cc2C1C (stereo not drawn) [Compound 877] |  | A (percent of modification of PIK3CA protein ≥75%) |
| < 100 nM |  | C=CC(=O)N1CCn2nc(-c3nc(-c4ccc5c(c4)C(=O)N(C)C5)c4ccsc4c3-c3c(F)cc(F)cc3OCC(C)O)cc2C1C (stereo not drawn) [Compound 878] |  | A (percent of modification of PIK3CA protein ≥75%) |
